In US5965407A, “Anthracycline compound 0624” (Higeta Shoyu Co. Ltd., priority 1997, dated 1999):
≈ marks a conversion by molar mass, not a printed value.

Legend:
L1210 cell line = test: Growth inhibition of L1210 cells (MTT assay); type: cell-based; conditions: Mus musculus, L1210, 72 hours, 37° C.
Description: (§1) Cell suspensions were prepared (at 5.6×10^6 cells/ml) by using RPMI 1640 medium for L1210 cell line, RPMI 1640 medium containing 20 μM 2-mercaptoethanol (all the media containing 10% bovine serum) for P388 cell line and an adriamycin resistant P388 cell line, Eagle's MEM medium for KB cell line, and α-MEM medium for CHO cell line.
(§2) Test samples (0624-A and 0624-B) were individually dissolved in methanol and serially diluted with the individual media in a series of 2-fold dilution starting from a concentration of 0.1 mg/ml. The cell suspensions (each of 180 μl) and each test sample (20 μl) were divided in a 96-well microtiter plate, and subjected to culturing in wet atmosphere of 5% CO2 -95% air at 37° C. 72 hours after, cell growth was determined by the calorimetric assay using 3-(4, 5-dimethyl-z-thiazolyl)-2,5-diphenyl-2H-tetrazolium bromide (MTT). More specifically, 20 μl each of 2 mg/ml MTT solution was added into each well, followed by culturing at 37° C. for 4 hours. Then, 50 μl of 50 % dimethylformamide solution containing 20% sodium dodecyl sulfate was added to each well, which was left to stand. The resulting formed violet formazan crystal was solubilized and subjected to determination of absorbance at 570 nm, by using a microplate reader (Immunoreader), which was used as the indicator of growth. […]

P388 cell line = test: Growth inhibition of P388 cells (MTT assay); type: cell-based; conditions: Mus musculus, P388, 72 hours, 37° C.
Description: as §1, §2

[1] = tested on: Adriamycin resistant P388 cell line; test: Growth inhibition of adriamycin resistant P388 cells (MTT assay); type: cell-based; conditions: Mus musculus, Adriamycin resistant P388, 72 hours, 37° C.
Description: as §1, §2

KB cell line = test: Growth inhibition of KB cells (MTT assay); type: cell-based; conditions: Homo sapiens, 72 hours, 37° C.
Description: as §1, §2

CHO cell line = test: Growth inhibition of CHO cells (MTT assay); type: cell-based; conditions: Cricetulus griseus, 72 hours, 37° C.
Description: as §1, §2

[2] = tested on: cell lines L1210, P388, adriamycin resistant P388, KB and CHO; test: Growth inhibition of the tumor cell line panel (MTT assay), summary in words; type: cell-based
Description: as §1, §2

[3] = tested on: Micrococcus luteus IFM2066; test: Antimicrobial activity (MIC), Micrococcus luteus; type: cell-based; conditions: Micrococcus luteus IFM2066, Muller-Hinton broth, 24 hours, 37° C.
Description: (§3) The antimicrobial activity of compound 0624 was confirmed through the assaying of the minimum growth inhibitory concentration (MIC).
(§4) The MICs of compound 0624 against various bacteria were determined in a Muller-Hinton broth (BBL) containing 0.2% glucose, according to the standard defined by the Japan Chemotherapy Association (The Essentials of Antibiotics, the 4-th edition, Tokyo University Press, 1992).
(§5) The test bacteria were adjusted to 1×10^8 cfu/ml in the broth, and then used as test bacteria solutions.
(§6) The test samples (compounds 0624-A and 0624-B) were, separately, dissolved in methanol and were then serially diluted with the broth in a series of 2-fold dilution, starting from a concentration of 0.1 mg/ml. Each test bacteria solution (180 μl) and each test sample (20 μl) were divided in a 96-well microtiter plate, and cultured at 37° C. After 24 hours, the MIC was observed and calculated by the eye, and the resulting MIC was defined as MIC value.

[4] = tested on: Staphylococcus aureus 209P; test: Antimicrobial activity (MIC), Staphylococcus aureus; type: cell-based; conditions: Muller-Hinton broth, 24 hours, 37° C.
Description: as §3, §4, §5, §6

Bacillus subtilis PC1189 = test: Antimicrobial activity (MIC), Bacillus subtilis; type: cell-based; conditions: Bacillus subtilis PC1189, Muller-Hinton broth, 24 hours, 37° C.
Description: as §3, §4, §5, §6

[5] = tested on: Nocardia transvalensis IFM0333; test: Antimicrobial activity (MIC), Nocardia transvalensis; type: cell-based; conditions: Nocardia transvalensis IFM0333, Muller-Hinton broth, 24 hours, 37° C.
Description: as §3, §4, §5, §6

N. brasiliensis IFM0236 = test: Antimicrobial activity (MIC), N. brasiliensis; type: cell-based; conditions: N. brasiliensis IFM0236, Muller-Hinton broth, 24 hours, 37° C.
Description: as §3, §4, §5, §6

[6] = tested on: N. otitidiscaviarum IFM0239; test: Antimicrobial activity (MIC), N. otitidiscaviarum; type: cell-based; conditions: N. otitidiscaviarum IFM0239, Muller-Hinton broth, 24 hours, 37° C.
Description: as §3, §4, §5, §6

N. nova IFM0290 = test: Antimicrobial activity (MIC), N. nova; type: cell-based; conditions: N. nova IFM0290, Muller-Hinton broth, 24 hours, 37° C.
Description: as §3, §4, §5, §6

N. asteroides IFM0319 = test: Antimicrobial activity (MIC), N. asteroides; type: cell-based; conditions: Nocardia asteroides; N. asteroides IFM0319, Muller-Hinton broth, 24 hours, 37° C.
Description: as §3, §4, §5, §6

N. farcinica IFM0284 = test: Antimicrobial activity (MIC), N. farcinica; type: cell-based; conditions: Nocardia farcinica; N. farcinica IFM0284, Muller-Hinton broth, 24 hours, 37° C.
Description: as §3, §4, §5, §6

[7] = tested on: Mycobacterium smegmatis ATCC607; test: Antimicrobial activity (MIC), Mycobacterium smegmatis; type: cell-based; conditions: Mycolicibacterium smegmatis; Mycobacterium smegmatis ATCC607, Muller-Hinton broth, 24 hours, 37° C.
Description: as §3, §4, §5, §6

M. phlei ATCC11758 = test: Antimicrobial activity (MIC), M. phlei; type: cell-based; conditions: Mycolicibacterium phlei; M. phlei ATCC11758, Muller-Hinton broth, 24 hours, 37° C.
Description: as §3, §4, §5, §6

M. flavescens ATCC14474 = test: Antimicrobial activity (MIC), M. flavescens; type: cell-based; conditions: Mycolicibacterium flavescens; M. flavescens ATCC14474, Muller-Hinton broth, 24 hours, 37° C.
Description: as §3, §4, §5, §6

gram-positive bacteria = test: Antimicrobial activity, summary in words; type: cell-based; conditions: gram-positive bacteria of Table 6
Description: as §3, §4, §5, §6

Solubility = type: physicochemical
[8] = in chloroform, ether and hexane
[9] = in water, methanol, ethanol, DMSO and ethyl acetate

Row | SMILES | IC50 (L1210 cell line) | IC50 (P388 cell line) | IC50 [1] | IC50 (KB cell line) | IC50 (CHO cell line) | growth inhibitory activities against the cell lines [2] | MIC [3] | MIC [4] | MIC (Bacillus subtilis PC1189) | MIC [5] | MIC (N. brasiliensis IFM0236) | MIC [6] | MIC (N. nova IFM0290) | MIC (N. asteroides IFM0319) | MIC (N. farcinica IFM0284) | MIC [7] | MIC (M. phlei ATCC11758) | MIC (M. flavescens ATCC14474) | antimicrobial activity against gram-positive bacteria (gram-positive bacteria) | Solubility (Solubility; [8]) | other results
1 | COc1ccc(O)c2c1C(=O)c1cc3c(c(O)c1C2=O)C(OC1CC(C)(N(C)C)C(O)C(C)O1)C(OC)C(C)(O)C3=O (stereo not drawn) [Compound 0624-A] | 0.15 µg/mL (≈ 0.256 µM) | 0.47 µg/mL (≈ 0.803 µM) | 0.97 µg/mL (≈ 1.66 µM) | 1.06 µg/mL (≈ 1.81 µM) | 12.3 µg/mL (≈ 21 µM) | have the growth inhibitory activities | 1.56 µg/mL (≈ 2.66 µM) | 3.13 µg/mL (≈ 5.34 µM) | 6.25 µg/mL (≈ 10.7 µM) | 3.13 µg/mL (≈ 5.34 µM) | 6.25 µg/mL (≈ 10.7 µM) | 1.56 µg/mL (≈ 2.66 µM) | 0.78 µg/mL (≈ 1.33 µM) | 1.56 µg/mL (≈ 2.66 µM) | 3.13 µg/mL (≈ 5.34 µM) | 1.56 µg/mL (≈ 2.66 µM) | 0.78 µg/mL (≈ 1.33 µM) | 3.13 µg/mL (≈ 5.34 µM) | wide spectrum of antimicrobial activity | Insoluble | Solubility (Solubility; [9]): Soluble
2 | COc1ccc(O)c2c1C(=O)c1cc3c(c(O)c1C2=O)C(OC1CC(C)(N(C)C)C(OC(C)=O)C(C)O1)C(OC)C(C)(O)C3=O (stereo not drawn) [Compound 0624-B] | 0.18 µg/mL (≈ 0.287 µM) | 0.59 µg/mL (≈ 0.94 µM) | 1.05 µg/mL (≈ 1.67 µM) | 1.32 µg/mL (≈ 2.1 µM) | 18.6 µg/mL (≈ 29.6 µM) | have the growth inhibitory activities | 12.5 µg/mL (≈ 19.9 µM) | 100 µg/mL (≈ 159 µM) | 3.13 µg/mL (≈ 4.99 µM) | 6.25 µg/mL (≈ 9.96 µM) | > 100 µg/mL | > 100 µg/mL | 1.56 µg/mL (≈ 2.49 µM) | 3.13 µg/mL (≈ 4.99 µM) | 12.5 µg/mL (≈ 19.9 µM) | 3.13 µg/mL (≈ 4.99 µM) | 3.13 µg/mL (≈ 4.99 µM) | 12.5 µg/mL (≈ 19.9 µM) | wide spectrum of antimicrobial activity | Insoluble | Solubility (Solubility; [9]): Soluble
